What follows are compounds tested against T1, human kinase Mps-1 (Homo sapiens, UniProt P33981) (assay: Mps-1 kinase assay (TR-FRET)). Details: Mps-1 TR-FRET kinase assay; avg; read-out: Mps1 avg (IC50 [mol/l]).
T1 construct: N-terminally GST-tagged human full length recombinant Mps-1 kinase; GST (N); purchased Invitrogen, Karslruhe, Germany PV4071
T1 sequence (P33981 1-857): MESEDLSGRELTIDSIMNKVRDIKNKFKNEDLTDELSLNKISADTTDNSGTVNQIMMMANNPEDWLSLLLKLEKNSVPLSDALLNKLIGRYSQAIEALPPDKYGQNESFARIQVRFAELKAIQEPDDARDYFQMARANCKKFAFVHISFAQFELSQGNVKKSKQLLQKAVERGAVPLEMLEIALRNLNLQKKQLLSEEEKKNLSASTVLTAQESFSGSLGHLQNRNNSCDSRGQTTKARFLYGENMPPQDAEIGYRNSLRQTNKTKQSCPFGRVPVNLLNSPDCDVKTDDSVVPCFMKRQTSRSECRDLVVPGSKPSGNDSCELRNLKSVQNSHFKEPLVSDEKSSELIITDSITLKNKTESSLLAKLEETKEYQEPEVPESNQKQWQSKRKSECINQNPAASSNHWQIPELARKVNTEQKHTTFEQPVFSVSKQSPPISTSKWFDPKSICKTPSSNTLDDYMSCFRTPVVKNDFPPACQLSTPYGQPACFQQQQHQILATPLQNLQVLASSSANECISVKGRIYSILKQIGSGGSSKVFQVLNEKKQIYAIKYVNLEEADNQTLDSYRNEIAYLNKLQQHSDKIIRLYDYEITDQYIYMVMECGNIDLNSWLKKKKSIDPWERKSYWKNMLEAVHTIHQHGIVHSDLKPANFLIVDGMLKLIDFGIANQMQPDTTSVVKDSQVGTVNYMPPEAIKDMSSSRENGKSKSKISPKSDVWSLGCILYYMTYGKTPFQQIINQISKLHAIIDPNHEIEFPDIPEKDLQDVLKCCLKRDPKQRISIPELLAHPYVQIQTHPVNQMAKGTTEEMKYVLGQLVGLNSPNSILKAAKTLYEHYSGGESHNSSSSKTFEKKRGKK
Assay type: biochemical
Procedure, shortened: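 Inhibition normalised between uninhibited reaction (0%) and enzyme-free wells (100%), using the blank-corrected TR-FRET 665/620 nm ratio after EDTA stop. Reaction: ~0.5 nM GST-Mps-1 full length, 10 μM ATP, 1 μM biotin-peptide, 60 min at 22 °C, after 15 min compound pre-binding, pH 7.7.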
`Cc1nsc(Nc2cnc(C(F)(F)F)cn2)c1C(=O)Nc1ccc(OC2CCCN(CCF)C2)nc1` (centres unmarked) [Example 329, N-(6-{[1-(2-fluoroethyl)piperidin-3-yl]oxy}pyridin-3-yl)-3-methyl-5-{[5-(trifluoromethyl)pyrazin-2-yl]amino}-1,2-thiazole-4-carboxamide] was tested, and the IC50 was at least 20 µM.
For `Cc1nsc(Nc2cnc(C(F)(F)F)cn2)c1C(=O)Nc1ccc(O[C@H]2CCN(CC(F)F)C[C@@H]2F)nc1` [Example 362], the IC50 was over 20 µM.
`Cc1nsc(Nc2cncc(C(F)(F)F)n2)c1C(=O)Nc1ccc(F)c(OC2CCN(CCC(F)(F)F)CC2)c1` [Example 343, N-(4-fluoro-3-{[1-(3,3,3-trifluoropropyl)piperidin-4-yl]oxy}phenyl)-3-methyl-5-{[6-(trifluoromethyl)pyrazin-2-yl]amino}-1,2-thiazole-4-carboxamide] was tested, and the IC50 was at least 20 µM.
In the case of `Cc1nsc(Nc2cnc(C(F)(F)F)cn2)c1C(=O)Nc1ccc(F)c(OCC2CCCN(CCC(F)(F)F)C2)c1` (centres unmarked) [Example 338, N-(4-fluoro-3-{[1-(3,3,3-trifluoropropyl)piperidin-3-yl]methoxy}phenyl)-3-methyl-5-{[5-(trifluoromethyl)pyrazin-2-yl]amino}-1,2-thiazole-4-carboxamide], the IC50 is reported as at least 20 µM.
`Cc1nsc(Nc2cnc(C(F)(F)F)cn2)c1C(=O)Nc1ccc(OCCN(C)CC(F)F)nc1` [Example 349, N-(6-{2-[(2,2-difluoroethyl)(methyl)amino]ethoxy}pyridin-3-yl)-3-methyl-5-{[5-(trifluoromethyl)pyrazin-2-yl]amino}-1,2-thiazole-4-carboxamide] gave an IC50 of at least 20 µM.
Compound `Cc1nsc(Nc2cnc(C(F)(F)F)cn2)c1C(=O)Nc1ccc(OC2CCCN(CCC(F)(F)F)C2)nc1` (centres unmarked) [Example 332, 3-methyl-5-{[5-(trifluoromethyl)pyrazin-2-yl]amino}-N-(6-{[1-(3,3,3-trifluoropropyl)piperidin-3-yl]oxy}pyridin-3-yl)-1,2-thiazole-4-carboxamide] has an IC50 of at least 20 µM.
`Cc1nsc(Nc2cnc3ccccc3n2)c1C(=O)Nc1ccc(OC2CCCN(CC(F)F)C2)nc1` (centres unmarked) [Example 33, N-(6-{[1-(2,2-Difluoroethyl)piperidin-3-yl]oxy}pyridin-3-yl)-3-methyl-5-(quinoxalin-2-ylamino)-1,2-thiazole-4-carboxamide] was tested, and the IC50 was at least 20 µM.
`Cc1nsc(Nc2cnc(C(F)(F)F)cn2)c1C(=O)Nc1ccc(F)c(OCC2CCCN(CC(F)F)C2)c1` (centres unmarked) [Example 334, N-(3-{[1-(2,2-difluoroethyl)piperidin-3-yl]methoxy}-4-fluorophenyl)-3-methyl-5-{[5-(trifluoromethyl)pyrazin-2-yl]amino}-1,2-thiazole-4-carboxamide] showed an IC50 of at least 20 µM.
Compound `Cc1nsc(Nc2cnc(C(F)(F)F)cn2)c1C(=O)Nc1ccc(OC[C@@H]2CCCN(CC(F)F)C2)nc1` [Example 375, N-(6-{[(3R)-1-(2,2-difluoroethyl)piperidin-3-yl]methoxy}pyridin-3-yl)-3-methyl-5-{[5-(trifluoromethyl)pyrazin-2-yl]amino}-1,2-thiazole-4-carboxamide] has an IC50 of over 20 µM.
With `Cc1nsc(Nc2cnc(C(F)(F)F)cn2)c1C(=O)Nc1ccc(N2CCN(CCC(F)(F)F)CC2)nc1` [Example 361, 3-methyl-5-{[5-(trifluoromethyl)pyrazin-2-yl]amino}-N-{6-[4-(3,3,3-trifluoropropyl)piperazin-1-yl]pyridin-3-yl}-1,2-thiazole-4-carboxamide] the IC50 was over 20 µM.
`CCN1CC[C@H](Oc2ccc(NC(=O)c3c(C)nsc3Nc3cnc(C(F)(F)F)cn3)cn2)[C@@H](F)C1` [Example 365, N-(6-{[(3S,4S)-1-ethyl-3-fluoropiperidin-4-yl]oxy}pyridin-3-yl)-3-methyl-5-{[5-(trifluoromethyl)pyrazin-2-yl]amino}-1,2-thiazole-4-carboxamide] was tested, and the IC50 was over 20 µM.
Compound `Cc1nsc(Nc2cnc(C(F)(F)F)cn2)c1C(=O)Nc1ccc(O[C@H]2CCN(CC(F)(F)F)C[C@@H]2F)nc1` [Example 363, N-(6-{[(3S,4S)-3-fluoro-1-(2,2,2-trifluoroethyl)piperidin-4-yl]oxy}pyridin-3-yl)-3-methyl-5-{[5-(trifluoromethyl)pyrazin-2-yl]amino}-1,2-thiazole-4-carboxamide] has an IC50 of over 20 µM.
Work on `Cc1nsc(Nc2cnc(C(F)(F)F)cn2)c1C(=O)Nc1ccc(F)c(OCC2CCCN(CC(F)(F)F)C2)c1` (centres unmarked) [Example 337, N-(4-fluoro-3-{[1-(2,2,2-trifluoroethyl)piperidin-3-yl]methoxy}phenyl)-3-methyl-5-{[5-(trifluoromethyl)pyrazin-2-yl]amino}-1,2-thiazole-4-carboxamide] yielded an IC50 of at least 20 µM.
For `Cc1nsc(Nc2cnc(C(F)(F)F)cn2)c1C(=O)Nc1ccc(OCC2CCN(CC(F)F)CC2)nc1` [Example 345, N-(6-{[1-(2,2-difluoroethyl)piperidin-4-yl]methoxy}pyridin-3-yl)-3-methyl-5-{[5-(trifluoromethyl)pyrazin-2-yl]amino}-1,2-thiazole-4-carboxamide], the IC50 was over 20 µM.
`Cc1nsc(Nc2cnc(C(F)(F)F)cn2)c1C(=O)Nc1ccc(OCC2CCN(CC(F)(F)F)CC2)nc1` [Example 346, 3-methyl-N-(6-{[1-(2,2,2-trifluoroethyl)piperidin-4-yl]methoxy}pyridin-3-yl)-5-{[5-(trifluoromethyl)pyrazin-2-yl]amino}-1,2-thiazole-4-carboxamide] was tested, and the IC50 was over 20 µM.
With `Cc1nsc(Nc2cnc(C(F)(F)F)cn2)c1C(=O)Nc1ccc(OC2CCN(C(CF)CF)CC2)nc1` [Example 324, N-(6-{[1-(1,3-difluoropropan-2-yl)piperidin-4-yl]oxy}pyridin-3-yl)-3-methyl-5-{[5-(trifluoromethyl)pyrazin-2-yl]amino}-1,2-thiazole-4-carboxamide] the IC50 was at least 20 µM.
`Cc1nsc(Nc2cnc(C(F)(F)F)cn2)c1C(=O)Nc1ccc(N2CCN(CC(F)F)CC2)nc1` [Example 359, N-{6-[4-(2,2-difluoroethyl)piperazin-1-yl]pyridin-3-yl}-3-methyl-5-{[5-(trifluoromethyl)pyrazin-2-yl]amino}-1,2-thiazole-4-carboxamide] gave an IC50 of over 20 µM.
Compound `Cc1nsc(Nc2cnc(C(F)(F)F)cn2)c1C(=O)Nc1ccc(OC2CCCN(C(CF)CF)C2)nc1` (centres unmarked) [Example 333, N-(6-{[1-(1,3-difluoropropan-2-yl)piperidin-3-yl]oxy}pyridin-3-yl)-3-methyl-5-{[5-(trifluoromethyl)pyrazin-2-yl]amino}-1,2-thiazole-4-carboxamide] has an IC50 of at least 20 µM.
`Cc1nsc(Nc2cnc(C(F)(F)F)cn2)c1C(=O)Nc1ccc(CCC2CCN(CC(F)F)CC2)nc1` [Example 356, N-(6-{2-[1-(2,2-difluoroethyl)piperidin-4-yl]ethyl}pyridin-3-yl)-3-methyl-5-{[5-(trifluoromethyl)pyrazin-2-yl]amino}-1,2-thiazole-4-carboxamide] was tested, and the IC50 was over 20 µM.
In the case of `Cc1nsc(Nc2cnc(C(F)(F)F)cn2)c1C(=O)Nc1ccc(O[C@H]2CCN(CC(F)F)C2)nc1` [Example 382, N-(6-{[(3S)-1-(2,2-difluoroethyl)pyrrolidin-3-yl]oxy}pyridin-3-yl)-3-methyl-5-{[5-(trifluoromethyl)pyrazin-2-yl]amino}-1,2-thiazole-4-carboxamide], the IC50 is reported as over 20 µM.
